The target of the assay is CDK12 wt/CycK (Homo sapiens (Human), UniProt Q9NYV4). As to the kind of experiment: Radiometric protein kinase assay (33PanQinase Activity Assay), Assay Condition A (thiol containing conditions). It is filed as biochemical. The following applies: thiol containing conditions (1.2 mM DTT), ATP 0.3 μM; read-out: CDK12 IC50 Condition A. Put shortly:
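Recombinant human kinase incubated with [33P]ATP, substrate and compound (10 concentrations, 1×10^−04M to 3×10^−09M, singlicate, 1% DMSO) under thiol-containing buffer conditions, 60 min at 30 °C. 33Pi incorporation counted by scintillation; residual activity normalised to no-inhibitor and no-kinase controls, IC50 derived.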

In general, IC50 refers to the concentration needed to halve the response being measured.

Chain of CDK12 wt/CycK (Q9NYV4 whole entry): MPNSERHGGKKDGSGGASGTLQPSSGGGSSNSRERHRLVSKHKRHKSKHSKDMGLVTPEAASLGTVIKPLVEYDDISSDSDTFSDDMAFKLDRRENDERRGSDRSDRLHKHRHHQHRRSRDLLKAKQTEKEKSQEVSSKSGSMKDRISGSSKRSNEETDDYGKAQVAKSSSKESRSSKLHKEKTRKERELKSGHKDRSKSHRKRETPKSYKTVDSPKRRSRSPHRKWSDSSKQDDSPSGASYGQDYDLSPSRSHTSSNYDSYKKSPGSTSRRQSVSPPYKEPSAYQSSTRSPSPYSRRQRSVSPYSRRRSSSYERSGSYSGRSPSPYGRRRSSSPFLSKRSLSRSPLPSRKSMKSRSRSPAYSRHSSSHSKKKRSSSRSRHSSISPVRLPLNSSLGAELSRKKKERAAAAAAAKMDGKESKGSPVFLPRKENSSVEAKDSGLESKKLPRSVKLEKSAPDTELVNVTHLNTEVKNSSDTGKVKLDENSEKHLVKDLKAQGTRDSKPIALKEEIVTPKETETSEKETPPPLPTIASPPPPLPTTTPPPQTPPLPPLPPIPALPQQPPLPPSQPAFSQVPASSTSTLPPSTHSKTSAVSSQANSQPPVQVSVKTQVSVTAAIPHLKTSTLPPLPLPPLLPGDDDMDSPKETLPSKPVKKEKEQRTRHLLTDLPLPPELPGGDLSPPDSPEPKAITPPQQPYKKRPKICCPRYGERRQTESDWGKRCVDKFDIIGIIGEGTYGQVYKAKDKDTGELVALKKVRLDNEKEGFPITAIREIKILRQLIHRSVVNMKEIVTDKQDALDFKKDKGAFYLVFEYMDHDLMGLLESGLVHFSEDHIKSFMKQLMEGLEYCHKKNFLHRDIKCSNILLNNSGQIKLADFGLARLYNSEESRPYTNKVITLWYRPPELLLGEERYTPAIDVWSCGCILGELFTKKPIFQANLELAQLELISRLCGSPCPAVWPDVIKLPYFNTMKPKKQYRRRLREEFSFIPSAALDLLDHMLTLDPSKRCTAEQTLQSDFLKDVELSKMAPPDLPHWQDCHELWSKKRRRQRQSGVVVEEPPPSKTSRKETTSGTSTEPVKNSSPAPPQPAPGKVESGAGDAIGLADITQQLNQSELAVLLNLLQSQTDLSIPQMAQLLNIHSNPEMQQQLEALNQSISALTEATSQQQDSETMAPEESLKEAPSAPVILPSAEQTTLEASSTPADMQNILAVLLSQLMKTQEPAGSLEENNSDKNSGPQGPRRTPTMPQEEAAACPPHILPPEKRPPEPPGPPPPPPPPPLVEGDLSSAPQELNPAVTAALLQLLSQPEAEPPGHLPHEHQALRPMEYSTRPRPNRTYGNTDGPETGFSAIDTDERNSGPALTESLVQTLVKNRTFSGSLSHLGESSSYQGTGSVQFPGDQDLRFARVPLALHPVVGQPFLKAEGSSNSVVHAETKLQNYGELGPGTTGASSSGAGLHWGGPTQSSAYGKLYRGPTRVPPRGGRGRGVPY
Chain of CDK12 wt/CycK (O75909 whole entry partner): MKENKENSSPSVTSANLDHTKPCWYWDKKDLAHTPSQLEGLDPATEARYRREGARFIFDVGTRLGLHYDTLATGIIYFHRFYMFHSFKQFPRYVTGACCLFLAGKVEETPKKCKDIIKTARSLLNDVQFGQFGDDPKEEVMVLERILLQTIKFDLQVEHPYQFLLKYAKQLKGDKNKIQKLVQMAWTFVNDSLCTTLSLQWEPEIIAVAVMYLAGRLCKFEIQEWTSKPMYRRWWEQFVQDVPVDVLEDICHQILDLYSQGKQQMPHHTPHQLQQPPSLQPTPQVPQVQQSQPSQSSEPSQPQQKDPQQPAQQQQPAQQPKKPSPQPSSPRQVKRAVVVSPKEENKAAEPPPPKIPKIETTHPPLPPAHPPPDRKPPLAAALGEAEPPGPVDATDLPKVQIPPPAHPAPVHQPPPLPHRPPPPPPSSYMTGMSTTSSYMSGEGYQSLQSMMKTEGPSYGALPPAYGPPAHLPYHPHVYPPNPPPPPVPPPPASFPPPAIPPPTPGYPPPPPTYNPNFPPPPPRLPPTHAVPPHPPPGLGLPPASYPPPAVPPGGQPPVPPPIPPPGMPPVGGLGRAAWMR

Consider `COc1nc(N[C@@H]2CCN(C(=O)c3ccc(NC(=O)/C=C/CN4CC[C@H](F)C4)cc3)C2)ncc1Cl` [Example 169, (E)-N-(4-((R)-3-((5-chloro-4-methoxypyrimidin-2-yl)amino)pyrrolidine-1-carbonyl)phenyl)-4-((S)-3-fluoropyrrolidin-1-yl)but-2-enamide], for which the IC50 was less than 100 nM.

For the compound `COc1nc(N[C@@H]2CCN(C(=O)c3ccc(NC(=O)/C=C/CN4CC[C@@H](F)C4)cn3)C2)ncc1Cl` [Example 170, (E)-N-(6-((R)-3-((5-chloro-4-methoxypyrimidin-2-yl)amino)pyrrolidine-1-carbonyl)pyridin-3-yl)-4-((R)-3-fluoropyrrolidin-1-yl)but-2-enamide], the concentration for half-maximal inhibition (IC50) lay within 100 to 1000 nM.

For the compound `COc1nc(N[C@@H]2CCN(C(=O)c3ccc(NC(=O)/C=C/CN4CC[C@H](F)C4)cn3)C2)ncc1Cl` [Example 171, (E)-N-(6-((R)-3-((5-chloro-4-methoxypyrimidin-2-yl)amino)pyrrolidine-1-carbonyl)pyridin-3-yl)-4-((S)-3-fluoropyrrolidin-1-yl)but-2-enamide], the IC50 is 100 to 1000 nM.

In the case of `COc1nc(N[C@@H]2CCN(C(=O)c3ccc(NC(=O)/C=C/CN4CCCC(F)(F)C4)cn3)C2)ncc1Cl` [Example 172, (R,E)-N-(6-(3-((5-chloro-4-methoxypyrimidin-2-yl)amino)pyrrolidine-1-carbonyl)pyridin-3-yl)-4-(3,3-difluoropiperidin-1-yl)but-2-enamide], the IC50 fell in the range of 100 to 1000 nM.

Turning to `COc1nc(N[C@@H]2CCN(C(=O)c3ccc(NC(=O)/C=C/CN4CCCC(F)(F)C4)cc3)C2)ncc1Cl` [Example 173, (R,E)-N-(4-(3-((5-chloro-4-methoxypyrimidin-2-yl)amino)pyrrolidine-1-carbonyl)phenyl)-4-(3,3-difluoropiperidin-1-yl)but-2-enamide], the IC50 is 100 to 1000 nM.

Consider `COc1nc(N[C@@H]2CCN(C(=O)c3ccc(NC(=O)/C=C/CN4CCOCC4)cn3)C2)ncc1Cl` [Example 174, (R,E)-N-(6-(3-((5-chloro-4-methoxypyrimidin-2-yl)amino)pyrrolidine-1-carbonyl)pyridin-3-yl)-4-morpholinobut-2-enamide], for which the IC50 was 100 to 1000 nM.

For the compound `COc1nc(N[C@@H]2CCN(C(=O)c3ccc(NC(=O)/C=C/CN4CCC[C@H](F)C4)cn3)C2)ncc1Cl` [Example 175, (E)-N-(6-((R)-3-((5-chloro-4-methoxypyrimidin-2-yl)amino)pyrrolidine-1-carbonyl)pyridin-3-yl)-4-((S)-3-fluoropiperidin-1-yl)but-2-enamide], the IC50 was in the range of 100 to 1000 nM.

`COc1nc(N[C@@H]2CCN(C(=O)c3ccc(NC(=O)/C=C/CN4CCC[C@@H](F)C4)cn3)C2)ncc1Cl` [Example 176, (E)-N-(6-((R)-3-((5-chloro-4-methoxypyrimidin-2-yl)amino)pyrrolidine-1-carbonyl)pyridin-3-yl)-4-((R)-3-fluoropiperidin-1-yl)but-2-enamide]: the IC50 lay in the range of 100 to 1000 nM.

Regarding `COc1nc(N[C@@H]2CCN(C(=O)c3ccc(NC(=O)/C=C/CN4CCC[C@H](F)C4)cc3)C2)ncc1Cl` [Example 177, (E)-N-(4-((R)-3-((5-chloro-4-methoxypyrimidin-2-yl)amino)pyrrolidine-1-carbonyl)phenyl)-4-((S)-3-fluoropiperidin-1-yl)but-2-enamide], the IC50 lay within 100 to 1000 nM.

Regarding `COc1nc(N[C@@H]2CCN(C(=O)c3ccc(NC(=O)/C=C/CN4CCC[C@@H](F)C4)cc3)C2)ncc1Cl` [Example 178, (E)-N-(4-((R)-3-((5-chloro-4-methoxypyrimidin-2-yl)amino)pyrrolidine-1-carbonyl)phenyl)-4-((R)-3-fluoropiperidin-1-yl)but-2-enamide], the IC50 lay in the range of 100 to 1000 nM.

Regarding `COc1nc(N[C@@H]2CCN(C(=O)c3ccc(NC(=O)/C=C/CN4CC[C@@H](F)C4)nc3)C2)ncc1Cl` [Example 179, (E)-N-(5-((R)-3-((5-chloro-4-methoxypyrimidin-2-yl)amino)pyrrolidine-1-carbonyl)pyridin-2-yl)-4-((R)-3-fluoropyrrolidin-1-yl)but-2-enamide], the IC50 was 100 to 1000 nM.

For the compound `C=CC(=O)Nc1ccc(C(=O)N2C[C@H](Nc3ncc(Cl)c(OC)n3)C[C@@H]2C)cc1` [Example 180, N-(4-((2S,4R)-4-((5-chloro-4-methoxypyrimidin-2-yl)amino)-2-methylpyrrolidine-1-carbonyl)phenyl)acrylamide], the IC50 is less than 100 nM.

Take `C#Cc1cnc(N[C@@H]2CCN(C(=O)c3ccc(NC(=O)C=C)cc3)C2)nc1` [Example 181, (R)—N-(4-(3-((5-ethynylpyrimidin-2-yl)amino)pyrrolidine-1-carbonyl)phenyl)acrylamide]: the IC50 was less than 100 nM.

For the compound `C#Cc1cnc(N[C@@H]2CCN(C(=O)c3ccc(NC(=O)C=C)cc3)C2)nc1OC` [Example 182, (R)—N-(4-(3-((5-ethynyl-4-methoxypyrimidin-2-yl)amino)pyrrolidine-1-carbonyl)phenyl)acrylamide], the IC50 is less than 100 nM.

As to `C=CC(=O)Nc1ccc(C(=O)N2C[C@H](Nc3ncc(Cl)c(OC)n3)C[C@H]2C)cc1` [Example 183, N-(4-((2R,4R)-4-((5-chloro-4-methoxypyrimidin-2-yl)amino)-2-methylpyrrolidine-1-carbonyl)phenyl)acrylamide], the IC50 is less than 100 nM.

For `C=CC(=O)Nc1ccc(C(=O)N2CC[C@@H](Nc3ncc(C(F)(F)F)cn3)C2)cc1` [Example 184, (R)—N-(4-(3-((5-(trifluoromethyl)pyrimidin-2-yl)amino)pyrrolidine-1-carbonyl)phenyl)acrylamide], the IC50 is less than 100 nM.

The values are drawn from patent US10894788B2, “Inhibitors of cyclin-dependent kinases” (Kinnate Biopharma Inc., priority 2018, dated 2021).
